This is an account of results in publication PMC8725005, “The crystal structure of DynF from the dynemicin-biosynthesis pathway of Micromonospora chersina” (Acta Crystallographica. Section F, Structural Biology …, 2022).

In one data set the target is T1, DynF (Micromonospora chersina, UniProt B2BM43).
T1 construct: full-length, N-terminal 6xHis tag cleaved with TEV protease (one extra Ser before Met1); E. coli BL21 (DE3); dimer
T1 sequence (B2BM43 1-210): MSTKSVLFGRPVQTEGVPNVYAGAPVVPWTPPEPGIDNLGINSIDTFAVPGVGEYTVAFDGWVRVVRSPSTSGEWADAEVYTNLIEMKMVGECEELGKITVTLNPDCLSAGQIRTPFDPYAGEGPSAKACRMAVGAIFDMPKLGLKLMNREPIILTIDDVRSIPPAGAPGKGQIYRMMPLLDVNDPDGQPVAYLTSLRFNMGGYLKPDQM
The data set is described as follows: X-ray crystal structure ([…] Å); GC-MS of acetonitrile extract. To be noted: co-purified from E. coli; bound inside the beta-barrel cavity of each protomer. It counts as binding.

Data set [1] deals with the molecule itself. In words: crystal structure; sitting-drop vapor diffusion, 293 K, 25%(w/v) PEG 1500, 0.1 M PCB buffer pH 7.0; space group C222(1); two molecules in the asymmetric unit; palmitic acid bound.

As for `CCCCCCCCCCCCCCCC(=O)O` [palmitic acid], the “X-ray crystal structure (1.50 Å); GC-MS of acetonitrile extract” value on DynF is recorded as “confirmed by gas chromatography–mass spectrometry (GC-MS) as palmitic acid”.

B1: DynF from Micromonospora chersina ATCC53710 (natural protein)
chain: MSTKSVLFGRPVQTEGVPNVYAGAPVVPWTPPEPGIDNLGINSIDTFAVPGVGEYTVAFDGWVRVVRSPSTSGEWADAEVYTNLIEMKMVGECEELGKITVTLNPDCLSAGQIRTPFDPYAGEGPSAKACRMAVGAIFDMPKLGLKLMNREPIILTIDDVRSIPPAGAPGKGQIYRMMPLLDVNDPDGQPVAYLTSLRFNMGGYLKPDQM
notes: DynF, Micromonospora chersina ATCC53710, protein of unknown function from the dynemicin biosynthetic gene cluster; GenBank ACB47058.1; the insert primers run from the ATG to the TGA stop codon; The tag mgsshhhhhhenlyfq/s was cut by TEV protease at the slash, so one serine of the tag stays before Met1 (211 residues a chain; 418 of 422 residues built for two chains); Vector pNIC28-Bsa4 (Addgene …)
As to B1, in data set [1], the binding result is reported as “binds”.
